Columns and labels:
Type in all cases: in vivo
[1] = system: Meloidogyne incognita; assay: Meloidogyne incognita control test 1 (seed dressing); conditions: cucumber; seed dressing 0.5 mg/seed; 21 days after inoculation
Description: Cucumber seeds were sown one by one in a 3 cm styrene cup filled with sterilized soil, where the seeds had been subjected to dressing treatment with a dressing dust presented in Formulation Example 1 so that the amount treated of the compound (1) would be a predetermined amount. Then, 10 days after sowing, 200 counts/mL of the second stage larval solution of Meloidogyne incognita was inoculated at 1 mL for each seed. Then, 21 days after the inoculation, the degree of gall formation on the cucumber root was classified by a visual inspection based on the following 6-level gall formation degree criteria, and the gall index was calculated. In addition, the gall index was also calculated in the same manner for the case of sowing seeds treated with paraherquamide A instead of Formulation Example 1 (compound (1)) and for the case of sowing seeds treated with none of the compounds.
(§1) Gall index=(0×a+1×b+2×c+3×d+4×e+5×f)/((a+b+c+d+e+f) ×5)×100 • a: number of strains that meet the gall formation degree criteria of 0, b: number of strains that meet the gall formation degree criteria of 1, c: number of strains that meet the gall formation degree criteria of 2, d: number of strains that meet the gall formation degree criteria of 3, e: number of strains that meet the gall formation degree criteria of 4, and f: number of strains that meet the gall formation degree criteria of 5. […]

[2] = system: Bursaphelenchus xylophilus; assay: Bursaphelenchus xylophilus control test (cotton ball test method); set-up: key: Score 1: no influence on feeding (no effect); Score 2: feeding degree of 41% or more; Score 3: feeding degree of 21 to 40%; Score 4: feeding degree of 20% or less; Score 5: no feeding (great effect); conditions: 26° C., 5 days
Description: As a Bursaphelenchus xylophilus control test, the cotton ball test method was used to confirm the inhibitory effect on the proliferation of Bursaphelenchus xylophilus. […] The pressure was reduced in a desiccator for about 30 minutes, the solvent was removed by evaporation, and a test cotton ball was obtained. In addition, the gray mold as the test bacterium was cultured at 22° C. for 4 days in a Petri dish containing potato dextrose agar medium. Then, the test cotton ball was placed in the center of the Petri dish, and 1500 Bursaphelenchus xylophilus (100 μL of solution) were injected therein. This Petri dish was cultured at 26° C. for 5 days, and the feeding degree of the gray mold by Bursaphelenchus xylophilus was evaluated based on the following evaluation criteria. Further, evaluation was performed in the same manner when morantel was used instead of the compound (1) or (2).
Score 1: no influence on feeding (no effect)
Score 2: feeding degree of 41% or more
Score 3: feeding degree of 21 to 40%
Score 4: feeding degree of 20% or less
Score 5: no feeding (great effect)

[3] = system: Cucumber seeds; assay: Cucumber phytotoxicity test (seed dressing); conditions: 0.5 mg/seed, 10 days after sowing; for Germination Count: sowing count 5
Description: Cucumber seeds were sown one by one in a 3 cm styrene cup filled with sterilized soil, where the seeds had been subjected to dressing treatment with a dressing dust presented in Formulation Example 1 or Formulation Example 2 so that the amount treated of the compound (1) or compound (2) would be a predetermined amount.
The germination rate was calculated 10 days after sowing. In addition, the germination rate was also calculated in the same manner for the case of sowing seeds treated with fluensulfone instead of Formulation Example 1 (compound (1)) or Formulation Example 2 (compound (2)) and for the case of sowing seeds treated with none of the compounds.

[4] = system: Hymenolepis diminuta; assay: Hymenolepis diminuta control test in infected rats; conditions: oral 20 mg/kg, 7 days after administration
Text: Rats were previously infected with Hymenolepis diminuta to prepare infected rats.

[5] = system: Ascaridia galli; assay: Ascaridia galli control test (in vitro); conditions: 50 ppm; 24 hours; 42° C.
Description: To 10 mL of a chemical solution prepared by using Ringer's solution so that the compound (1) or the compound (2) would have a predetermined concentration, 6 Ascaridia galli were introduced, and the solution was cultured in a water bath at 42° C. The number of surviving worms was counted 24 hours after the start of culture, and the mortal worm rate was calculated.

[6] = system: wheat; assay: Wheat growth effect test; conditions: 3 days; for Plant Height Relative to Untreated: untreated = 100; for Plant Height: root immersion
Description: Each well of a 24-well plate was charged with 200 μL of a chemical solution prepared to have a final concentration of 10% acetone and a predetermined concentration of the compound (1), and the root of the sprouting wheat was immersed therein. Then, 3 days after the immersion, the plant height of the stems and leaves was measured to evaluate the effect of the compound (1) on the growth of wheat. In addition, the plant height of the stems and leaves was also measured for the case of sowing seeds not treated with the compound (1) (untreated). Note that Table 8 also presents the relative values of plant height (relative to untreated) when the untreated case was set to 100.

[7] = system: Meloidogyne incognita; assay: Meloidogyne incognita control test (soil irrigation); conditions: cucumber; soil irrigation 100 ppm, 3 mL; 21 days after inoculation
Description: Cucumber seeds were sown one by one in a 3 cm styrene cup filled with sterilized soil. After germination, 3 mL each of a chemical solution prepared with 10% acetone water was irrigated into the soil so that the compound (1) would be 100 ppm when irrigated into the soil. After 1 hour, 200 counts/mL of the second stage larval solution of Meloidogyne incognita were inoculated at 1 mL/pot. Then, 21 days after the inoculation, the degree of gall formation on the cucumber root was classified by a visual inspection based on the following 6-level gall formation degree criteria, and the gall index was calculated. In addition, the gall index, in the case of the treated group not treating the compound (1) (untreated), was also calculated in the same manner.
as §1, with “index=(0×a+1×b+2×c+3×d+4×e+5×f)/((a+b+c+d+e+f)×5)×100” for “index=(0×a+1×b+2×c+3×d+4×e+5×f)/((a+b+c+d+e+f) ×5)×100 •”

[8] = system: Heterodera glycines; assay: Heterodera glycines control test (in vitro); conditions: 10 ppm; second stage larvae; 2 days after addition; 25° C.
Description: Each well of a 24-well plate was charged with 1 mL of a chemical solution prepared to have a final concentration of 0.1% acetone and a predetermined concentration of the compound (1), in which 20 to 30 larvae of Heterodera glycines at the second stage were released and left to stand in the dark at 25° C. The number of surviving and moribund worms 2 days after the addition of the chemical solution was measured. In addition, the number of surviving and moribund worms in the untreated group not treating the compound (1) was measured in the same manner, and the corrected mortal worm rate was calculated by the following formula.
Corrected mortal worm rate (%)={(mortal worm rate of treated group−mortal worm rate of untreated group)/(100−mortal worm rate of untreated group)}×100

SMILES	Gall Index [1]	Germination Rate [3]	Germination Count [3]	control effect [4]	mortal worm rate [5]	Score (feeding degree of the gray mold) ([2]; 20 μg/cotton ball, 200 ppm)	other results
CN1C(=O)[C@]23C[C@@H]4C(C)(C)[C@@]5(C[C@@]41CN2CC[C@@]3(C)O)C(=O)Nc1c5ccc2c1OC=CC(C)(C)O2 [Paraherquamide A, paraherquamide A, reference compound]	44	–	–	–	–	–	–
Cc1ccsc1/C=C/C1=NCCCN1C [Morantel, morantel, reference compound]	–	–	–	–	–	–	Score (feeding degree of the gray mold) ([2]; 5 μg/cotton ball, 50 ppm): 5
O=S(=O)(CCC(F)=C(F)F)c1ncc(Cl)s1 [Fluensulfone, fluensulfone, reference compound]	–	0%	0	–	–	–	–
C[C@H]1CCN2C[C@@]34C[C@]5(CC(=O)N(C)C5=O)C(C)(C)[C@@H]3C[C@]12C(=O)N4C [Compound (2), asperparaline A]	–	100%	5	no effect	0	1	–
C[C@H]1CC(=O)N2C[C@]34C[C@]5(CC(=O)N(C)C5=O)C(C)(C)[C@@H]3CC12C(=O)N4C [Compound (1), 16-keto-aspergillimide]	8	100%	5	no effect	0	1	Plant Height Relative to Untreated ([6]; 50 ppm): 106.1; Plant Height ([6]; 50 ppm): 9.87 cm; Plant Height Relative to Untreated ([6]; 100 ppm): 98.9; Plant Height ([6]; 100 ppm): 9.20 cm; Plant Height Relative to Untreated ([6]; 200 ppm): 98.9; Plant Height ([6]; 200 ppm): 9.20 cm; Gall Index [7]: 0; corrected mortal worm rate [8]: 100%
